# Laboratory results taken from patent publication US20050164210A1, “Regulated polymerase III expression systems and related methods” (priority 2004, published 2005).
# Tested on: VgEcR and RXR
# Experiment: murA induction of the E/GRE/Hsmin promoter: GFP+ cells by fluorescent microscopy and FACS, Western blot of GAL4-Oct-2Q(Q→A) and EGFP
# Type: cell-based
# Conditions: 72 h
# Protocol: High titer virus were produced by calcium phosphate transfection of retroviral DNA constructs into the LinX amphotrophic retroviral packaging cell line (17) followed by incubation with dexamethasone/butyrate (1 μM/ml) of packagers at 32° C. for 3 days. Infections were carried out by harvesting supernatants from LinX packagers, filtered through a […] membrane (Millipore), followed by the addition of polybrene (8 μM) to supernatants, finally overlaying onto actively dividing host cells (70% confluent). Cells were gently spun at room temperature for 30 min, incubated at 32° C. for 6 h. […]
# Western blot analysis and antibodies. […] Signal intensities were determined after background corrections by using Alpha-Imager 2000 Documentation and Analysis Software (Alpha Innotech, San Leandro, Calif.). The percentage reduction in band intensity for each concentration of murA was calculated relative to the uninduced samples and normalized against β-tubulin.
# The ecdysone inducible system is comprised of three Moloney murine leukemia virus (MoMLV)-based retroviral vectors, the two vectors expressing nuclear receptors/transcription factors VgEcR and RXR, and a third construct, pEind-RNAi expressing a chimeric transactivator GAL4-Oct-2^Q(Q→A), and an internal ribosomal entry site (IRES) linked enhanced green fluorescence protein (EGFP) under an inducible promoter E/GRE/Hsmin (FIG. 1A). […]
smiles,measurement,setting,value
"CC(C)CC[C@@H](O)[C@](C)(O)[C@H]1CC[C@@]2(O)C3=CC(=O)[C@]4(O)C[C@@H](O)[C@@H](O)C[C@]4(C)[C@H]3[C@H](O)C[C@]12C [murA, muristerone A]",Levels of GAL4-Oct-2Q(Q→A) and EGFP protein (Western blot),"5 μM murA, versus untreated controls",increased levels
same,GFP+ cells following induction with murA,"sorted stable cells, 0.5 μM murA (microscopy), 5 μM murA (FACS)",> 95%
